Where two headings read alike, the source gives them in different places.
Key:
[1] = target: T1, C-terminal catalytic domain of human DNMT3A (hDNMT3A) (Homo sapiens, UniProt Q9Y6K1); experiment: DNMT3A restriction-based fluorescence assay; assay type: biochemical; conditions: mean of at least two independent experiments; read-out: Enzyme Inhibition (EC50 ± SD) hDNMT3A
T1 construct: the C-terminal catalytic domain of human DNMT3A (hDNMT3A)
Procedure: DNMT3A enzyme inhibition was adapted from the restriction-based fluorescence assay protocol described in Ceccaldi et al.. Briefly, a biotin-labelled oligonucleotide at the 5’ end is hybridized to his complementary strand labelled at the 3’ end with 6-carboxyfluorescein. The DNA duplex containing only one single CpG site overlapping with a restriction site of a methylation sensitive restriction enzyme is transferred in the wells coated with avidin. The methylation reaction is performed by adding human C-terminal DNMT3A at the final concentration of 4 ng/µL in a total volume of 50 µL in the presence of the inhibitors at various concentrations and the co-substrate SAM at the final concentration of 20 µM. The plate was incubated for 1 h at 37 °C, washed, and added with the methylation sensitive restriction enzyme HpyCH4IV, incubated for 1 h further at 37 °C, washed and the fluorescence measured with a PerkinElmer Envision Multilabel Plate Reader. The data are expressed as percentage of inhibition vs. log concentration (M). Data are normalized referring to the “restriction control” (wells coated with labelled duplex not treated nor exposed to DNMT3A, but only cleaved by HpyCH4IV) as the maximum of inhibition (100%) and to the “DMSO control” (wells coated with labelled duplex but treated just with 0.1% DMSO exposed to DNMT3A and then to HpyCH4IV) as the minimum of inhibition (0%; total methylation).

human DNMT1 (hDNMT1) = target: T2, human DNMT1 (hDNMT1) (Homo sapiens, UniProt P26358); experiment: DNMT1 assay ([methyl-3H]SAM, Flashplate); assay type: biochemical; conditions: mean of at least two independent experiments; read-out: Enzyme Inhibition (EC50 ± SD) hDNMT1
T2 construct: His; made in house
Procedure: His-DNMT1 (182 kDa, human) was cloned, expressed, and purified as described by Lee et al.. The DNMT1 assay was performed according to Gros et al.. […] The reaction was incubated 2 h at 37 °C, then 8 µL of the solution are transferred into a streptavidin 96-well scintillant coated Flashplate containing 190 µL of 20 mM SAH in 50 mM Tris–HCl (pH 7.4). The Flashplate is agitated for 1 h at room temperature and washed. The plate is read with TopCount (PerkinElmer). In this assay, the negative and positive controls were defined as wells without enzyme and wells with only DMSO, respectively.

U937 AML cells [2] = experiment: Antiproliferative activity, MTT; assay type: cell-based; conditions: Homo sapiens, U-937, 48 h treatment, read-out: Antiproliferative Activity (IC50 ± SD) U937
Procedure: (§1) U937 histiocytic lymphoma, HL60 acute promyelocytic leukemia, H1299 lung adenocarcinoma, MCF7 breast carcinoma, HT1080 fibrosarcoma, M14 melanoma, HeLa epithelial cervix carcinoma and peripheral blood B lymphocyte AHH1 human cell lines were obtained from the Deutsche Sammlung für Mikroorganismen and Zellkulturen (DSZM, Braunschweig, Germany) and were maintained in RPMI 1640 medium contained 10% fetal bovine serum (FBS), 2 mM L-glutamine, and antibiotics in a humidified atmosphere with 5% CO2 at 37 °C. HCT116 (ATCC, VA, USA) cells were propagated in Dulbecco’s modified Eagle medium (DMEM) (Euroclone, Milan, Italy) with 10% fetal bovine serum (FBS; Euroclone, Milan, Italy), 2 mM L-glutamine (Euroclone, Milan, Italy), and antibiotics (100 U/mL penicillin, 100 µg/mL streptomycin) (Euroclone, Milan, Italy). The experiments were performed with early (3–20) cell passages. Cell lines were treated with compounds at the indicated concentrations in the exponential growth phase.
(§2) Then, increasing concentrations of different compounds (ranging from 0.01 to 100 μM) were added, and cell proliferation was evaluated by a MTT assay after 48 h. Cells exposed to DMSO were used as control. The effect of compounds was evaluated using the CellTiter-Glo luminescent cell viability assay (Promega, Madison, WI, USA) according to the manufacturer’s instructions. For HCT116, 5 × 10^4 cells/well were plated in 24-well plate and treated, in duplicate, with compounds at several concentrations for 24 and 48 h of induction. After treatments, MTT solution was added for 3 h at 0.5 mg/mL, the obtained crystals were dissolved in DMSO (Sigma-Aldrich, Milan, Italy), and the absorbance was read at a wavelength of 570 nm with reader TECAN M-200. All the experiments were performed in triplicate and repeated at least three times.
(§3) IC50 values of compounds against cellular viability were determined by using nonlinear regression fitting curves with GraphPad Prism 8. The t-test used for statistical analyses was performed with GraphPad Prism 8. All the tests were one-tailed and a p-value < 0.05 was considered statistically significant.

HL60 APL cells [3] = experiment: Antiproliferative activity, MTT; assay type: cell-based; conditions: Homo sapiens, HL-60, 48 h treatment, read-out: Antiproliferative Activity (IC50 ± SD) HL60
Procedure: as §1, §2, §3

U937 AML cells [4] = conditions: MTT, 48 h, read-out: Antiproliferative Activity (IC50 ± SD) U937, cited from earlier work
KRAS21R G-quadruplex DNA = experiment: FRET melting assay, G-quadruplex DNA; assay type: binding
Procedure: (§4) Experimental procedure for Fluorescence Resonance Energy Transfer (FRET) melting assay Oligonucleotides labeled at 5’ with FAM (6-carboxyfluorescein) as donor fluorophore and TAMRA (6 - carboxytetramethylrhodamine) at 3’ as the acceptor fluorophore were purchased from STAB VIDA (Portugal). Each oligonucleotide was initial ly diluted to 100 µM in water (Molecular Biology Reagent, Sigma). Stock solutions of 20 µM and subsequent dilutions were made with FRET buffer (60 mM KCl, potassium cacodylate, pH 7.4). Tagged oligonucleotides at 0.4 µM were annealed by heating at 90 -95 °C for 10 min, followed by slow cooling to room temperature. St ock solutions of compounds (1 mM) were prepared in 10% DMSO. Subsequent dilutions were performed using FRET buffer. Annealed DNA (50 µL) and test compound solutions (50 µL) were distributed across 96-well RT-PCR plates (PCR-96-FLT-C, Axygen, Inc). Fluorescence readings (performed in a 7300 RT -PCR equipment from Applied Biosystems) were taken at intervals of 0.5 °C in the range 31 –95 °C, with the temperature being maintained for 30 seconds prior to each reading. Experiments were performed in triplicate. Fina l analysis of the data was carried out with GraphPad Prism v.5.0 (GraphPad Software Inc., La Jolla, CA, USA).
(§5) The advanced curve-fitting function in GraphPad Prism (nonlinear regression fit) was used for calculation of ΔTm values. Only results with fitting r2 values > 0.75 (std error < 0.25) were considered.
(§6) Table S2. Synthetic oligonucleotides used in FRET experiments.

F21T G-quadruplex DNA = experiment: FRET melting assay, G-quadruplex DNA; assay type: binding
Procedure: as §4, §5, §6

HL60 APL cells [5] = conditions: MTT, 48 h, read-out: Antiproliferative Activity (IC50 ± SD) HL60, cited from earlier work
[6] = tested on: HT1080 human fibrosarcoma; experiment: Antiproliferative activity, MTT; assay type: cell-based; conditions: HT-1080, 48 h treatment, read-out: Antiproliferative Activity (IC50 ± SD) HT1080
Procedure: as §1, §2, §3

[7] = tested on: HeLa epithelial cervix carcinoma; experiment: Antiproliferative activity, MTT; assay type: cell-based; conditions: Homo sapiens, 48 h treatment, read-out: Antiproliferative Activity (IC50 ± SD) HeLa
Procedure: as §1, §2, §3

M14 human melanoma = experiment: Antiproliferative activity, MTT; assay type: cell-based; conditions: 48 h treatment, read-out: Antiproliferative Activity (IC50 ± SD) M14
Procedure: as §1, §2, §3

[8] = tested on: HCT116 human colorectal carcinoma; experiment: Antiproliferative activity, MTT; assay type: cell-based; conditions: HCT-116, 48 h treatment, read-out: Antiproliferative Activity (IC50 ± SD) HCT116
Procedure: as §1, §2, §3

[9] = tested on: H1299 human non-small cell lung carcinoma; experiment: Antiproliferative activity, MTT; assay type: cell-based; conditions: 48 h treatment, read-out: Antiproliferative Activity (IC50 ± SD) H1299
Procedure: as §1, §2, §3

[10] = tested on: luciferase reporter under methylated CMV promoter in KG-1 leukemia cells; experiment: CMV-luc assay in KG-1 cells; assay type: cell-based; conditions: KG-1 CMV-luc, vs DMSO
Procedure: The assay was carried out as described by Rilova et al.. The KG-1 cell line was stably transfected with the luciferase firefly (Luc^+ from pGL3 by Promega, Madison, WI, USA) reporter gene under the control of a methylated CMV promoter (from pEGFP-N1 by Clontech) and selected for the maintenance of the methylation of CMV and luciferase expression silencing (KG-1 CMV-luc). The stably integrated KG-1 CMV-luc cells are cultivated in RPMI-1640 medium (Lonza, Strasbourg, France), supplemented with 10% FCS (Lonza, Strasbourg, France) and 0.5 mg/mL of geneticin (Sigma-Aldrich, Saint-Quentin Fallavier, France), under 5% CO2, at 37 °C and seeded at 20,000 cells per well in 96-well plates. After 5 or 24 h of incubation in the presence of compounds or the solvent DMSO, the induction of the promoter is measured by quantification of luciferase with the Brite-lite assay system (PerkinElmer, Villebon-sur-Yvette, France) according to the manufacturer’s protocol. The luminescence is measured on an EnVision Multilabel Plate Reader (PerkinElmer, Villebon-sur-Yvette, France), and the data are expressed as fold induction compared to DMSO control. The mean of 2–4 experiments and its standard error are reported.

[11] = tested on: methylated UCHL1 promoter (pUCHL1) in HCT116 cells; experiment: UCHL1 promoter demethylation assay (EGFP induction, FACS); assay type: cell-based, human; conditions: five days
Procedure: The assay was performed as described in [29]. Briefly, human colon cancer HCT116 (ATCC, VA, USA) cells were grown in Dulbecco’s Modified Eagle Medium (DMEM; Euroclone, Milan, Italy) supplemented with 10% fetal bovine serum (FBS; Euroclone, Milan, Italy), 2 mM L-glutamine (Euroclone), and antibiotics (100 U/mL penicillin, 100 µg/mL streptomycin) (Euroclone). The pUMLIEP vector (composed by MetLuc-IRES-EGFP construct upon the control of the ubiquitin carboxyl-terminal hydrolase L1 (UCHL1)) was linearized and methylated by with ClaI and SssI-methylase enzymes (New England Biolabs, Milan, Italy). After, methylated pUMLIEP was transfected into HCT116 cells following the protocol described in [30]. […] On day 5, cells were observed under by a fluorescent microscope (Cytation 5 Cell Imaging Multi-Mode Reader (BioTeK Milan, Italy) and BD Accuri flow cytometers. Nuclei were counterstained with DAPI (10 µg/mL, Invitrogen, Tournai, Belgium).

T1 sequence (Q9Y6K1 634-912 limits assumed): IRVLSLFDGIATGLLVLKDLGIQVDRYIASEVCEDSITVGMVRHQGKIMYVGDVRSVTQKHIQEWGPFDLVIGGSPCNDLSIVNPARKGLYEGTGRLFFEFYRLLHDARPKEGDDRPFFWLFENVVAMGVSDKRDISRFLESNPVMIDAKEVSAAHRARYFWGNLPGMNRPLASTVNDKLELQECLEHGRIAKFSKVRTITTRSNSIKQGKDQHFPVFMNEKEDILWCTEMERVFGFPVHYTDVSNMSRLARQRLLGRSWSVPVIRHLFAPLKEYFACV
T2 sequence (P26358 whole entry): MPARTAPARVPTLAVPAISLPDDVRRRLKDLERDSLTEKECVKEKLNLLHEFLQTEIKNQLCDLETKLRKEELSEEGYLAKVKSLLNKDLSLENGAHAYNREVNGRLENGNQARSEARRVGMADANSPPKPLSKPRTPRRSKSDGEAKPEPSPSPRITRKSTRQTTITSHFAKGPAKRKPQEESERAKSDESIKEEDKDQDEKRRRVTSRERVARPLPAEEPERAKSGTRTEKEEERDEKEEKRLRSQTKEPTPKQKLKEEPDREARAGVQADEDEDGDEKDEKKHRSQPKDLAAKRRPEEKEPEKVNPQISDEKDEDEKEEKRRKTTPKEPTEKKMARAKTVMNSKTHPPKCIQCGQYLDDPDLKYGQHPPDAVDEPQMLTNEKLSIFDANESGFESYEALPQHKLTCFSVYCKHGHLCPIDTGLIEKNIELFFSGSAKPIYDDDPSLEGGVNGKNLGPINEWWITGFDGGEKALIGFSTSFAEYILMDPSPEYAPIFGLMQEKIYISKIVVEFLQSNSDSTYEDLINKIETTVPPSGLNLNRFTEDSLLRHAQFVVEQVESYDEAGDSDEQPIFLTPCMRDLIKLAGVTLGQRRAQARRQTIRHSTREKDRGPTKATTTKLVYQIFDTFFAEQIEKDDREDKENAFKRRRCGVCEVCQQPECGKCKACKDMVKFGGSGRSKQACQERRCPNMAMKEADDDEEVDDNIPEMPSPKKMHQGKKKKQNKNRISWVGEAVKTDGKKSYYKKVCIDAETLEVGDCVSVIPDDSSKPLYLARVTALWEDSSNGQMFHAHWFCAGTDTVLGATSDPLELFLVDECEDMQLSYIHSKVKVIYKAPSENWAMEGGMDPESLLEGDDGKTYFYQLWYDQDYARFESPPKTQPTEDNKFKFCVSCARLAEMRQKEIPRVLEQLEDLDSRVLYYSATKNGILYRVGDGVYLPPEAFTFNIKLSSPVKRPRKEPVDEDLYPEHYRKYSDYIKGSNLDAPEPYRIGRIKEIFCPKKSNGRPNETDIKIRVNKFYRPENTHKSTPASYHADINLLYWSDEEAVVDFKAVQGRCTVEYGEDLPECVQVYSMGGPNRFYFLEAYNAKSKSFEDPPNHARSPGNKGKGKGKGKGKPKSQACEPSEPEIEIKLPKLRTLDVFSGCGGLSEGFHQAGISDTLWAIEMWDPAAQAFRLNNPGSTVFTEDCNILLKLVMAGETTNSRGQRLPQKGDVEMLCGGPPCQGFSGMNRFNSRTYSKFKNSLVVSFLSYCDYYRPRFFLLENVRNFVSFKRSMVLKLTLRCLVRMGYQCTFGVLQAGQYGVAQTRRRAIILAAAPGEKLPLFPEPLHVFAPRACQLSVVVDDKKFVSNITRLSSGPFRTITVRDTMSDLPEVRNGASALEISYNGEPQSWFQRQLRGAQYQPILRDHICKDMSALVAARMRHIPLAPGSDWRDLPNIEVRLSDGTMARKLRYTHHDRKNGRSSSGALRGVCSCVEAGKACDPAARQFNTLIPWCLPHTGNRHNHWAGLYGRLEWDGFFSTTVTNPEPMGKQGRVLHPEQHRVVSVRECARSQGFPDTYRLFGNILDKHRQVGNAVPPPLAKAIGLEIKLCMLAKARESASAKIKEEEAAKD

Row | SMILES | IC50 (U937 AML cells [4]; reference compounds) [µM] | KRAS ∆Tm (KRAS21R G-quadruplex DNA; 5 µM) | KRAS ∆Tm (KRAS21R G-quadruplex DNA; 10 µM) | F21T ∆Tm (F21T G-quadruplex DNA; 5 µM) | F21T ∆Tm (F21T G-quadruplex DNA; 10 µM) | IC50 (HL60 APL cells [5]; reference compounds) [µM] | IC50 [6] [µM] | IC50 [7] [µM] | IC50 (M14 human melanoma) [µM] | IC50 [8] [µM] | IC50 ([9]; Homo sapiens, NCI-H1299, 48 h) [µM] | also measured
1 | Cc1cc(Nc2cccc(CNC(=O)c3cccc(Nc4ccnc5ccccc45)c3)c2)nc(N)n1 [Compound 1c] |  |  |  |  |  |  |  |  |  |  |  | EC50 [1]: 31 ± 6 µM; EC50 (human DNMT1 (hDNMT1)): 35 ± 7 µM; IC50 (U937 AML cells [2]): 25.8 ± 3.2 µM; IC50 (HL60 APL cells [3]): 36 ± 4 µM
2 | O=C(Nc1ccc(Nc2ccnc3ccccc23)cc1)c1ccc(Nc2ccnc3ccccc23)cc1 [Compound 2, reference compound] | 6.6 ± 0.9 | 1.0 ºC | 9.6 ºC | 0.6 ºC | 6.2 ºC | 65 ± 8.1 | 17 ± 2.1 | 52 ± 5.7 | 80 ± 9.1 | 13.3 ± 2.1 | 11 | IC50 [9]: 11.4 ± 1.8 µM
3 | Cc1cc(Nc2ccc(NC(=O)c3ccc(Nc4cc(C)nc(N)n4)cc3)cc2)nc(N)n1 [Compound 3] | 60 ± 8.2 |  |  |  |  | 119 ± 12.9 |  |  |  |  |  | 
4 | O=C(Nc1ccc(NC(=O)c2ccc(Nc3ccnc4ccccc34)cc2)cc1)OCc1ccccc1 [Compound 4, reference compound] |  | 1 ºC | 10.4 ºC | 2.7 ºC | 6.9 ºC |  | 1.7 ± 0.2 | 3.2 ± 0.5 | 2.9 ± 0.4 | 8.6 ± 1 | 5.9 ± 0.8 | IC50 (U937 AML cells [4]; reference compound): 2.3 ± 0.4 µM; IC50 (HL60 APL cells [5]; reference compound): 8.3 ± 1 µM
5 | Nc1ncn([C@H]2C[C@H](O)[C@@H](CO)O2)c(=O)n1 [DAC, 5-aza-2′-deoxycytidine, reference compound] |  |  |  |  |  |  |  |  |  |  |  | Luciferase Expression (Fold ± SD) ([10]; 0.5 µM): 18.13 ± 5.52 fold; Luciferase Expression (Fold ± SD) ([10]; 1 µM): 19.80 ± 3.88 fold; Luciferase Expression (Fold ± SD) ([10]; 5 µM): 23.82 ± 5.44 fold; Luciferase Expression (Fold ± SD) ([10]; 10 µM): 20.96 ± 4.02 fold; pUCHL1 demethylation, EGFP-positive cells (FACS R1) ([11]; HCT116, 5 µM): 46.6%
6 | Cc1cc(Nc2ccc(NC(=O)c3ccc(Nc4ccnc5ccccc45)cc3)cc2)nc(N)n1 [SGI-1027, reference compound] | 0.7 ± 0.08 | 6.7 ºC | 8.7 ºC | 1.9 ºC | 7.2 ºC | 0.7 ± 0.16 |  |  |  |  |  | pUCHL1 demethylation, EGFP-positive cells (FACS R1) ([11]; HCT116, 0.5 µM): 32.9%

From publication PMC7073229, “Novel Quinoline Compounds Active in Cancer Cells through Coupled DNA Methyltransferase Inhibition and Degradation” (Cancers, 2020)
